Test results published in patent US9580430B2, “9H-pyrimido[4,5-B]indoles and related analogs as BET bromodomain inhibitors” (THE REGENTS OF THE UNIVERSITY OF MICHIGAN, priority 2014, dated 2017).

Key:
[1] = tested on: VCaP xenograft model; experiment: Spontaneous metastasis in the VCaP xenograft model (human Alu qPCR); assay type: in vivo, mice; settings: femur, liver and spleen; JQ1 50 mg/kg, MDV3100 10 mg/kg
Protocol: (§1) Four week-old male SCID C.B17 mice were procured from a breeding colony at University of Michigan. All procedures involving mice were approved by the University Committee on Use and Care of Animals (UCUCA) at the University of Michigan and conform to all regulatory standards. Mice were anesthetized using 2% Isoflurane (inhalation) and 2×10^6 VCaP prostate cancer cells suspended in 100 μl of PBS with 50% Matrigel (BD Biosciences) were implanted subcutaneously into the dorsal flank on both sides of the mice. […] Growth in tumor volume was recorded using digital calipers and tumor volumes were estimated using the formula (π/6) (L×W^2), where L=length of tumor and W=width. Loss of body weight during the course of the study was also monitored. At the end of the studies mice were sacrificed and tumors extracted and weighed. Additionally, femur bone marrow, liver and spleen were harvested to examine spontaneous metastasis by detecting human-Alu sequence. […] All procedures involving mice were approved by the University Committee on Use and Care of Animals (UCUCA) at the University of Michigan and conform to all regulatory standards.

[2] = tested on: 5 prostate cancer and 1 benign prostate cell line; experiment: Cell viability assay, panel of prostate cell lines (Cell-Titer GLO); assay type: cell-based; settings: three of the AR-signaling positive cells; FIG. 1
Protocol: VCaP prostate cancer cells were grown in DMEM with Glutamax (Gibco), LNCaP, 22RV1, DU145 and PC3 prostate cancer cell lines were grown in RPMI 1640, all were supplemented with 10% FBS (Invitrogen) in 5% CO2 cell culture incubator. The immortalized benign prostate cell line RWPE-1 was grown in keratinocyte media with supplements (Lonza). All cell lines were tested and found to be free of mycoplasma contamination.
(§2) Cells were seeded in 96-well plates at 2000-10,000 cells/well (optimum density for growth) in a total volume of 100 μl media containing 10% FBS. Serially diluted compounds in 100 μl media were added to the cells 12 h later. Following 96 h. incubation, cell viability was assessed by Cell-Titer GLO (Promega). The values were normalized and IC50 was calculated using GraphPad Prism software. […] After 12 days cells were fixed with methanol, stained with crystal violet and photographed. For colorimetric assays, the stained wells were treated with 500 μl 10% acetic acid and the absorbance was measured at 560 nm using a spectrophotometer.

[3] = tested on: MYC; experiment: MYC levels in prostate cancer cells; assay type: cell-based; settings: AR-positive cells sensitive to JQ1, not AR-negative cells
Protocol: Total RNA was isolated from cells using RNeasy Mini Kit (Qiagen) and cDNA was synthesized from 1,000 ng total RNA using SuperScript III First-Strand Synthesis SuperMix (Invitrogen). QPCRs were performed in duplicate or triplicate using Taqman assays (Applied Biosystems) or standard SYBR green reagents and protocols on a StepOnePlus Real-Time PCR system (Applied Biosystems). The target mRNA expression was quantified using ΔΔCt method and normalized to GAPDH expression. All primers were designed using Primer 3 (http://frodo.wi.mit.edu/primer3/) and synthesized by Integrated DNA Technologies (Coralville, Iowa).
For Western blot analysis, 200 ug total protein extract was boiled in sample buffer and 10-20 μg aliquots were separated by SDS-PAGE and transferred onto Polyvinylidene Difluoride membrane (GE Healthcare). The membrane was incubated for one hour in blocking buffer [Tris-buffered saline, 0.1% Tween (TBS-T), 5% nonfat dry milk] followed by incubation overnight at 4° C. with the primary antibody. Following a wash with TBS-T, the blot was incubated with horseradish peroxidase-conjugated secondary antibody and signals were visualized by enhanced chemiluminescence system as per manufacturer's protocol (GE Healthcare).

[4] = tested on: castration-resistant VCaP tumor xenografts; experiment: Castration-resistant VCaP tumor xenograft (CRPC experiment); assay type: in vivo; settings: castrated mice; 50 mg/kg, 5 days/week; FIG. 26
Protocol: as §1

[5] = tested on: AR-gene signature; experiment: Gene expression array, GSEA of the AR target gene signature; assay type: cell-based; settings: AR-positive cells; 500 nM, 24 h; FIG. 6
Protocol: (§3) Cells treated with only vehicle or 10 nM DHT served as controls. […] Expression profiling was performed using the Agilent Whole Human Genome Oligo Microarray (SantaClara, Calif.) according to the manufacturer's protocol. All samples were run in technical duplicates or quadruplets against control. Over- and under-expressed gene sets were generated by filtering to include only 2-fold average over- or underexpression (Log ratio with p<0.001) in all hybridizations.

[6] = tested on: MYC signature; experiment: Gene expression array, GSEA of MYC signature, LNCaP; assay type: cell-based; settings: LNCaP after JQ1 treatment
Protocol: as §3

[7] = tested on: AR-positive cells; experiment: Long-term colony formation assay; assay type: cell-based; settings: 100 nM, 12 days, FIG. 3
Protocol: as §2

[8] = tested on: VCaP tumor xenograft
Protocol: as §1

[9] = tested on: BRD2/3/4; experiment: ChIP-seq of BRD2/3/4 in VCaP cells; assay type: cell-based; settings: 500 nM, 12 h
Protocol: The ChIP assays for BRD2, BRD3, BRD4, AR, RNA PolII, ERG and H3K27ac were performed using HighCell ChIP kit (Diagenode) according to manufacturer's protocol. […] Next, cells were cross-linked for 10 min. with 1% formaldehyde. […] Chromatin equivalent to 5×10^6 cells were used for ChIP using different antibodies. ChIP DNA was isolated (IPure Kit, Diagenode) from samples by incubation with the antibody at 4° C. overnight followed by wash and reversal of cross-linking. The ChIP-seq sample preparation for sequencing was performed according to the manufacturer's instructions (Illumina). […] A single A-base was added to fragment ends by Klenow fragment (3′ to 5′ exo minus; NEB) followed by ligation of Illumina adaptors (Quick ligase, NEB). The adaptor-modified DNA fragments were enriched by PCR using the Illumina Barcode primers and Phusion DNA polymerase (NEB). PCR products were size selected using 3% NuSieve agarose gels (Lonza) followed by gel extraction using QIAEX II reagents (QIAGEN). Libraries were quantified with the Bioanalyzer 2100 (Agilent) and sequenced on the Illumina HiSeq 2000 Sequencer (100 nucleotide read length).

Cc1sc2c(c1C)C(c1ccc(Cl)cc1)=N[C@@H](CC(=O)OC(C)(C)C)c1nnc(C)n1-2 [JQ1]
spontaneous metastasis [1]: no evidence of metastasis | sensitivity of prostate cell lines [2]: sensitive | MYC levels [3]: attenuated | reduction in castration-resistant tumors [4]: 50% | GSEA of AR-gene signature [5]: significantly repressed | NES ([6]; gene set MYC_UP.V1_UP): −2.068 | NES ([6]; gene set SCHLOSSER_MYC_AND_SERUM_RESPONSE_SYNERGY): −1.751 | NES ([6]; gene set SCHLOSSER_MYC_TARGETS_AND_SERUM_RESPONSE_UP): −1.957 | NES ([6]; gene set SCHUHMACHER_MYC_TARGETS_UP): −2.403 | long term colony-formation [7]: severely inhibited | tumor volume/weight ([8]; VCaP tumor-bearing mice, JQ1 50 mg/kg, MDV3100 10 mg/kg, 5 days/week, FIGS. 23-25): significant reduction in tumor volume/weight | tolerability ([8]; mouse, in vivo): well tolerated | recruitment of BRD2/3/4 to the chromatin [9]: reduction in the recruitment
